# Measurements from ChEMBL document CHEMBL1201862, “PubChem BioAssay data set” (2004).
#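 Briefly, cells in 96-well plates were exposed to five compound concentrations for 48 h, and endpoints were estimated by linear interpolation. The concentration for 50% growth inhibition is given as GI50.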 Activity calls are given as the source filed them. Cut-off read from the data, not from the text of the source: active = GI50 up to about 1.1 µM and inactive = higher.
# What was measured:
# Test in all cases: NCI anticancer screen, dose series, 48 h
# 786-0 = system: 786-0
# A549 = system: A549
# CAKI-1 = system: CAKI-1
# COLO 205 = system: COLO 205
# DLD-1 = system: DLD-1
# DMS-273 = system: DMS-273
# EKVX = system: EKVX
# HCC 2998 = system: HCC 2998
# HCT-116 = system: HCT-116
# HL-60 = system: HL-60
# HOP-18 = system: HOP-18
# HOP-62 = system: HOP-62
# HOP-92 = system: HOP-92
# HT-29 = system: HT-29
# KM-20L2 = system: KM-20L2
# KM12 = system: KM12
# LOX IMVI = system: LOX IMVI
# LXFL 529 = system: LXFL 529
# M14 = system: M14
# M19-MEL = system: M19-MEL
# Malme-3M = system: Malme-3M
# NCI-H226 = system: NCI-H226
# NCI-H23 = system: NCI-H23
# NCI-H460 = system: NCI-H460
# NCI-H522 = system: NCI-H522
# OVCAR-4 = system: OVCAR-4
# OVCAR-5 = system: OVCAR-5
# OVCAR-8 = system: OVCAR-8
# RXF 393 = system: RXF 393
# SF-268 = system: SF-268
# SF-295 = system: SF-295
# SF-539 = system: SF-539
# SK-MEL-28 = system: SK-MEL-28
# SK-MEL-2 = system: SK-MEL-2
# SN12C = system: SN12C
# SNB-19 = system: SNB-19
# SNB-75 = system: SNB-75
# SNB-78 = system: SNB-78
# SR = system: SR
# SW-620 = system: SW-620
# TK-10 = system: TK-10
# U-251 = system: U-251
# UACC-257 = system: UACC-257
# UO-31 = system: UO-31
# A498 = system: A498
# ACHN = system: ACHN
# CCRF-CEM = system: CCRF-CEM
# DMS-114 = system: DMS-114
# HCT-15 = system: HCT-15
# IGROV-1 = system: IGROV-1
# K562 = system: K562
# MOLT-4 = system: MOLT-4
# OVCAR-3 = system: OVCAR-3
# RPMI-8226 = system: RPMI-8226
# SK-MEL-5 = system: SK-MEL-5
# SK-OV-3 = system: SK-OV-3
# UACC-62 = system: UACC-62
# DU-145 = system: DU-145
smiles,measurement,setting,value
N=C(c1ccccc1)N(c1ccccc1)c1ccccc1,GI50,786-0,28.1 µM (inactive)
same,GI50,A549,> 100 µM (inactive)
same,GI50,CAKI-1,> 100 µM (inactive)
same,GI50,COLO 205,19.2 µM (inactive)
same,GI50,DLD-1,63.5 µM (inactive)
same,GI50,DMS-273,42.5 µM (inactive)
same,GI50,EKVX,93.3 µM (inactive)
same,GI50,HCC 2998,> 100 µM (inactive)
same,GI50,HCT-116,40.5 µM (inactive)
same,GI50,HL-60,20.8 µM (inactive)
same,GI50,HOP-18,0.0415 µM (active)
same,GI50,HOP-62,> 100 µM (inactive)
same,GI50,HOP-92,< 0.01 µM (active)
same,GI50,HT-29,42.5 µM (inactive)
same,GI50,KM-20L2,> 100 µM (inactive)
same,GI50,KM12,25.2 µM (inactive)
same,GI50,LOX IMVI,18.2 µM (inactive)
same,GI50,LXFL 529,21.6 µM (inactive)
same,GI50,M14,> 100 µM (inactive)
same,GI50,M19-MEL,> 100 µM (inactive)
same,GI50,Malme-3M,23.4 µM (inactive)
same,GI50,NCI-H226,23.1 µM (inactive)
same,GI50,NCI-H23,> 100 µM (inactive)
same,GI50,NCI-H460,87.5 µM (inactive)
same,GI50,NCI-H522,73.3 µM (inactive)
same,GI50,OVCAR-4,88.9 µM (inactive)
same,GI50,OVCAR-5,76.7 µM (inactive)
same,GI50,OVCAR-8,> 100 µM (inactive)
same,GI50,RXF 393,30.5 µM (inactive)
same,GI50,SF-268,48.6 µM (inactive)
same,GI50,SF-295,> 100 µM (inactive)
same,GI50,SF-539,74.1 µM (inactive)
same,GI50,SK-MEL-28,> 100 µM (inactive)
same,GI50,SK-MEL-2,> 100 µM (inactive)
same,GI50,SN12C,22.5 µM (inactive)
same,GI50,SNB-19,> 100 µM (inactive)
same,GI50,SNB-75,> 100 µM (inactive)
same,GI50,SNB-78,55 µM (inactive)
same,GI50,SR,30.7 µM (inactive)
same,GI50,SW-620,> 100 µM (inactive)
same,GI50,TK-10,> 100 µM (inactive)
same,GI50,U-251,> 100 µM (inactive)
same,GI50,UACC-257,> 100 µM (inactive)
same,GI50,UO-31,68.5 µM (inactive)
CCN(CC)CC1CCCCN1CC(=O)N1CC(C)C(=O)Nc2ccccc21 (stereo unspecified),GI50,786-0,> 100 µM (inactive)
same,GI50,A498,> 100 µM (inactive)
same,GI50,A549,> 100 µM (inactive)
same,GI50,ACHN,> 100 µM (inactive)
same,GI50,CAKI-1,> 100 µM (inactive)
same,GI50,CCRF-CEM,> 100 µM (inactive)
same,GI50,COLO 205,> 100 µM (inactive)
same,GI50,DLD-1,> 100 µM (inactive)
same,GI50,DMS-114,> 100 µM (inactive)
same,GI50,DMS-273,> 100 µM (inactive)
same,GI50,HCC 2998,> 100 µM (inactive)
same,GI50,HCT-116,> 100 µM (inactive)
same,GI50,HCT-15,> 100 µM
same,GI50,HL-60,> 100 µM (inactive)
same,GI50,HOP-18,> 100 µM (inactive)
same,GI50,HOP-62,> 100 µM (inactive)
same,GI50,HOP-92,> 100 µM (inactive)
same,GI50,HT-29,> 100 µM (inactive)
same,GI50,IGROV-1,> 100 µM (inactive)
same,GI50,K562,> 100 µM (inactive)
same,GI50,KM-20L2,> 100 µM (inactive)
same,GI50,LOX IMVI,> 100 µM (inactive)
same,GI50,LXFL 529,> 100 µM (inactive)
same,GI50,M14,> 100 µM (inactive)
same,GI50,M19-MEL,> 100 µM (inactive)
same,GI50,MOLT-4,> 100 µM (inactive)
same,GI50,Malme-3M,> 100 µM (inactive)
same,GI50,NCI-H226,> 100 µM (inactive)
same,GI50,NCI-H23,> 100 µM (inactive)
same,GI50,NCI-H460,> 100 µM (inactive)
same,GI50,OVCAR-3,> 100 µM (inactive)
same,GI50,OVCAR-4,> 100 µM (inactive)
same,GI50,OVCAR-5,> 100 µM (inactive)
same,GI50,RPMI-8226,> 100 µM (inactive)
same,GI50,SF-268,> 100 µM (inactive)
same,GI50,SF-295,> 100 µM (inactive)
same,GI50,SK-MEL-28,> 100 µM (inactive)
same,GI50,SK-MEL-5,> 100 µM (inactive)
same,GI50,SK-OV-3,> 100 µM (inactive)
same,GI50,SN12C,> 100 µM (inactive)
same,GI50,SNB-19,> 100 µM (inactive)
same,GI50,SR,> 100 µM (inactive)
same,GI50,SW-620,> 100 µM (inactive)
same,GI50,U-251,> 100 µM (inactive)
same,GI50,UACC-257,> 100 µM (inactive)
same,GI50,UACC-62,> 100 µM (inactive)
same,GI50,UO-31,> 100 µM (inactive)
COC(=N)C(C)C,GI50,A549,> 100 µM (inactive)
same,GI50,ACHN,> 100 µM (inactive)
same,GI50,CAKI-1,> 100 µM (inactive)
same,GI50,CCRF-CEM,> 100 µM (inactive)
same,GI50,COLO 205,> 100 µM (inactive)
same,GI50,DLD-1,> 100 µM (inactive)
same,GI50,DMS-114,> 100 µM (inactive)
same,GI50,DMS-273,> 100 µM (inactive)
same,GI50,HCC 2998,> 100 µM (inactive)
same,GI50,HCT-116,> 100 µM (inactive)
same,GI50,HCT-15,> 100 µM
same,GI50,HL-60,> 100 µM (inactive)
same,GI50,HOP-62,> 100 µM (inactive)
same,GI50,HOP-92,> 100 µM (inactive)
same,GI50,HT-29,> 100 µM (inactive)
same,GI50,IGROV-1,> 100 µM (inactive)
same,GI50,K562,> 100 µM (inactive)
same,GI50,KM-20L2,> 100 µM (inactive)
same,GI50,KM12,> 100 µM (inactive)
same,GI50,LOX IMVI,> 100 µM (inactive)
same,GI50,LXFL 529,> 100 µM (inactive)
same,GI50,M14,> 100 µM (inactive)
same,GI50,M19-MEL,> 100 µM (inactive)
same,GI50,MOLT-4,> 100 µM (inactive)
same,GI50,Malme-3M,> 100 µM (inactive)
same,GI50,NCI-H226,> 100 µM (inactive)
same,GI50,NCI-H23,> 100 µM (inactive)
same,GI50,NCI-H460,> 100 µM (inactive)
same,GI50,NCI-H522,> 100 µM (inactive)
same,GI50,OVCAR-3,> 100 µM (inactive)
same,GI50,OVCAR-4,> 100 µM (inactive)
same,GI50,OVCAR-5,> 100 µM (inactive)
same,GI50,RPMI-8226,> 100 µM (inactive)
same,GI50,RXF 393,> 100 µM (inactive)
same,GI50,SF-268,> 100 µM (inactive)
same,GI50,SF-295,> 100 µM (inactive)
same,GI50,SF-539,> 100 µM (inactive)
same,GI50,SK-MEL-28,> 100 µM (inactive)
same,GI50,SK-MEL-5,> 100 µM (inactive)
same,GI50,SK-OV-3,> 100 µM (inactive)
same,GI50,SN12C,> 100 µM (inactive)
same,GI50,SNB-19,> 100 µM (inactive)
same,GI50,SNB-75,> 100 µM (inactive)
same,GI50,SNB-78,> 100 µM (inactive)
same,GI50,SR,> 100 µM (inactive)
same,GI50,SW-620,> 100 µM (inactive)
same,GI50,TK-10,> 100 µM (inactive)
same,GI50,U-251,> 100 µM (inactive)
same,GI50,UACC-257,> 100 µM (inactive)
same,GI50,UACC-62,> 100 µM (inactive)
same,GI50,UO-31,> 100 µM (inactive)
O/N=C1/CCCC/C1=C/C=C/c1ccccc1,GI50,786-0,23.2 µM (inactive)
same,GI50,A498,20.9 µM (inactive)
same,GI50,A549,22.8 µM (inactive)
same,GI50,ACHN,25.6 µM (inactive)
same,GI50,CAKI-1,35.7 µM (inactive)
same,GI50,CCRF-CEM,20.6 µM (inactive)
same,GI50,COLO 205,19.4 µM (inactive)
same,GI50,DLD-1,29.6 µM (inactive)
same,GI50,DU-145,22.1 µM (inactive)
same,GI50,HCC 2998,22.1 µM (inactive)
same,GI50,HCT-116,15.7 µM (inactive)
same,GI50,HCT-15,14.9 µM
same,GI50,HL-60,13.1 µM (inactive)
same,GI50,HOP-18,25.8 µM (inactive)
same,GI50,HOP-92,15.5 µM (inactive)
same,GI50,HT-29,18.3 µM (inactive)
same,GI50,IGROV-1,16.5 µM (inactive)
same,GI50,K562,18.4 µM (inactive)
same,GI50,KM-20L2,18.5 µM (inactive)
same,GI50,KM12,20.1 µM (inactive)
same,GI50,LOX IMVI,17.2 µM (inactive)
same,GI50,LXFL 529,26 µM (inactive)
same,GI50,M14,21.2 µM (inactive)
same,GI50,M19-MEL,19.7 µM (inactive)
same,GI50,MOLT-4,19 µM (inactive)
same,GI50,Malme-3M,21.3 µM (inactive)
same,GI50,NCI-H226,23.6 µM (inactive)
same,GI50,NCI-H23,22.8 µM (inactive)
same,GI50,NCI-H460,22.7 µM (inactive)
same,GI50,NCI-H522,19.1 µM (inactive)
same,GI50,OVCAR-3,17.9 µM (inactive)
same,GI50,OVCAR-4,30.3 µM (inactive)
same,GI50,OVCAR-5,26.7 µM (inactive)
same,GI50,OVCAR-8,41.9 µM (inactive)
same,GI50,RPMI-8226,18.6 µM (inactive)
same,GI50,RXF 393,19.4 µM (inactive)
same,GI50,SF-268,19.1 µM (inactive)
same,GI50,SF-295,21.8 µM (inactive)
same,GI50,SF-539,20.2 µM (inactive)
same,GI50,SK-MEL-28,3.42 µM (inactive)
same,GI50,SK-MEL-2,17.7 µM (inactive)
same,GI50,SK-MEL-5,16.5 µM (inactive)
same,GI50,SK-OV-3,39 µM (inactive)
same,GI50,SN12C,17.8 µM (inactive)
same,GI50,SNB-19,48 µM (inactive)
same,GI50,SNB-75,20.4 µM (inactive)
same,GI50,SNB-78,25.5 µM (inactive)
same,GI50,SR,5.71 µM (inactive)
same,GI50,SW-620,26.5 µM (inactive)
same,GI50,TK-10,29 µM (inactive)
same,GI50,U-251,16.7 µM (inactive)
same,GI50,UACC-257,24.9 µM (inactive)
same,GI50,UACC-62,18.6 µM (inactive)
same,GI50,UO-31,20.6 µM (inactive)
